From patent US20240123079A1 (Seagen Inc., priority 2021, published 2024)
Read-outs that look alike come from different tables or passages of the source.

Test system: THP1-Dual™ reporter cells
Test: THP1-Dual cell reporter assay (IRF-Lucia luciferase reporter)
Format: cell-based, human
Description: THP1-Dual™ Cell Reporter Assay
Potency of compounds and ADCs was evaluated using the THP1-Dual™ cells (InvivoGen PN: thpd-nfis [also referred to as THP1 dual reporter cells]), which contain an IRF-Lucia luciferase reporter. Cells were cultured in RPMI-1640 (Gibco) with 10% heat-inactivated fetal bovine serum, Pen-Strep (100 U/mL-100 μg/mL, Gibco), HEPES (10 mM, Gibco)), sodium pyruvate (1 mM, Gibco), MEM non-essential amino acids (1×, Gibco), GlutaMAX (1×, Gibco), and beta-mercaptoethanol (55 μM, Gibco). Cells were plated in a 96-well flat bottom tissue culture-treated clear polystyrene plate (Corning Costar #3596) at ˜100,000 cells per well in 200 μL with the indicated concentration of the compound or ADC. The supernatant was harvested at 24 hours (compounds) or 48 hours (ADC) post plating for the reporter assay, or as indicated. To measure Lucia reporter signal, 10 μL of the supernatant was combined with 40 μL of QUANTI-Luc™ Luminescence assay reagent (Invivogen PN: rep-qlc1) in a 96-well clear flat bottom tissue culture-treated black polystyrene plate (Corning Costar #3603) and read on a Perkin Elmer Envision plate reader.
STING agonist compounds were assessed for their ability to activate THP1-Dual™ reporter cells, a human monocytic cell line in which type I interferon (IRF) signaling can be monitored via a secreted luciferase reporter protein (Lucia). THP1-Dual™ cells were treated with increasing concentrations of the agonists for 24h, then supernatants were harvested and the Lucia reporter signal was quantified using QUANTI-Luc™ Luminescence assay reagent.

[1] = ADCs: drug linker conjugated to a targeted mAb, 48 h
[2] = Homo sapiens, THP1-Dual, free compounds, 24 h, Lucia reporter signal, read-out: EC50

EC50 [2] [nM]	Compound	other results
1.6	CCn1nc(C)cc1C(=O)Nc1nc2cc(C(N)=O)cc(O)c2n1C/C=C/Cn1c(NC(=O)c2cc(C)nn2CC)nc2cc(C(N)=O)cc(OCCCN3CCOCC3)c21 [Compound 70]	
70.1	CCn1nc(C)cc1C(=O)Nc1nc2cc(C(N)=O)cc(OC)c2n1C/C=C/Cn1c(NC(=O)c2cc(C)nn2CC)nc2cc(C(N)=O)cc(OCCCN(C)C(=O)[C@H](CC(=O)O)NC(=O)CCN3C(=O)CC(SC[C@H](N)C(=O)O)C3=O)c21 (stereo partly shown) [Compound 71]	
216	CCn1nc(C)cc1C(=O)Nc1nc2cc(C(N)=O)cc(OC)c2n1C/C=C/Cn1c(NC(=O)c2cc(C)nn2CC)nc2cc(C(N)=O)cc(OCCCN(C)C(=O)CNC(=O)CCN3C(=O)CC(SC[C@H](N)C(=O)O)C3=O)c21 (stereo partly shown) [Compound 73]	
36	CCn1nc(C)cc1C(=O)Nc1nc2cc(C(N)=O)cc(OC)c2n1C/C=C/Cn1c(NC(=O)c2cc(C)nn2CC)nc2cc(C(N)=O)cc(OCCCN(C)C(=O)[C@H](C)NC(=O)CCN3C(=O)CC(SC[C@H](N)C(=O)O)C3=O)c21 (stereo partly shown) [Compound 74]	
57.7	CCn1nc(C)cc1C(=O)Nc1nc2cc(C(N)=O)cc(OC)c2n1C/C=C/Cn1c(NC(=O)c2cc(C)nn2CC)nc2cc(C(N)=O)cc(OCCCN(C)C(=O)[C@H](CO)NC(=O)CCN3C(=O)CC(SC[C@H](N)C(=O)O)C3=O)c21 (stereo partly shown) [Compound 75]	
> 10000	CCn1nc(C)cc1C(=O)Nc1nc2cc(C(N)=O)cc(OC)c2n1C/C=C/Cn1c(NC(=O)c2cccnn2)nc2cc(C(N)=O)cc(OCCCNC)c21 [Compound 79]	
> 10000	CCn1nc(C)cc1C(=O)Nc1nc2cc(C(N)=O)cc(OC)c2n1C/C=C/Cn1c(NC(=O)c2ccnnc2)nc2cc(C(N)=O)cc(OCCCNC)c21 [Compound 80]	
> 10000	CCn1nc(C)cc1C(=O)Nc1nc2cc(C(N)=O)cc(OC)c2n1C/C=C/Cn1c(NC(=O)c2cc(C)on2)nc2cc(C(N)=O)cc(OCCCNC)c21 [Compound 81]	
> 10000	CCn1nc(C)cc1C(=O)Nc1nc2cc(C(N)=O)cc(OC)c2n1C/C=C/Cn1c(NC(=O)c2cc(C)no2)nc2cc(C(N)=O)cc(OCCCNC)c21 [Compound 82]	
> 10000	CCn1nc(C)cc1C(=O)Nc1nc2cc(C(N)=O)cc(OC)c2n1C/C=C/Cn1c(NC(=O)c2cc(C)ns2)nc2cc(C(N)=O)cc(OCCCNC)c21 [Compound 83]	
2460	CCn1cc(C)nc1C(=O)Nc1nc2cc(C(N)=O)cc(OCCCNC)c2n1C/C=C/Cn1c(NC(=O)c2cc(C)nn2CC)nc2cc(C(N)=O)cc(OC)c21 [Compound 86]	
> 10000	CCc1cc(C(=O)Nc2nc3cc(C(N)=O)cc(OCCCNC)c3n2C/C=C/Cn2c(NC(=O)c3cc(C)nn3CC)nc3cc(C(N)=O)cc(OC)c32)n(C)n1 [Compound 87]	
394	CCn1nc(C)cc1C(=O)Nc1nc2cc(C(N)=O)cc(OC)c2n1C/C=C/Cn1c(NC(=O)c2cc(C)nn2C)nc2cc(C(N)=O)cc(OCCCNC)c21 [Compound 88]	
1320	CCc1oc(C)cc1C(=O)Nc1nc2cc(C(N)=O)cc(OCCCNC)c2n1C/C=C/Cn1c(NC(=O)c2cc(C)nn2CC)nc2cc(C(N)=O)cc(OC)c21 [Compound 89]	
> 10000	CCn1nc(C)cc1C(=O)Nc1nc2cc(C(N)=O)cc(OC)c2n1C/C=C/Cn1c(NC(=O)c2cc(C)sn2)nc2cc(C(N)=O)cc(OCCCNC)c21 [Compound 90]	
350	CCn1nc(C)cc1C(=O)Nc1nc2cc(C(N)=O)cc(OC)c2n1C/C=C/Cn1c(NC(=O)c2ccnn2CC)nc2cc(C(N)=O)cc(OCCCNC)c21 [Compound 91]	
1190	CCn1nc(C)cc1C(=O)Nc1nc2cc(C(N)=O)cc(OC)c2n1C/C=C/Cn1c(NC(=O)c2cc(C(F)(F)F)nn2CC)nc2cc(C(N)=O)cc(OCCCNC)c21 [Compound 92]	
> 10000	CCn1nc(C)cc1C(=O)Nc1nc2cc(C(N)=O)cc(OC)c2n1C/C=C/Cn1c(NC(=O)c2c(C)cnn2C)nc2cc(C(N)=O)cc(OCCCNC)c21 [Compound 93]	
133	CCc1nc(C)sc1C(=O)Nc1nc2cc(C(N)=O)cc(OCCCNC)c2n1C/C=C/Cn1c(NC(=O)c2cc(C)nn2CC)nc2cc(C(N)=O)cc(OC)c21 [Compound 94]	
12.9	CCc1nc(C)oc1C(=O)Nc1nc2cc(C(N)=O)cc(OCCCNC)c2n1C/C=C/Cn1c(NC(=O)c2cc(C)nn2CC)nc2cc(C(N)=O)cc(OC)c21 [Compound 95]	
9.4	CCn1nc(C)cc1C(=O)Nc1nc2cc(C(N)=O)cc(OC)c2n1C/C=C/Cn1c(NC(=O)c2cc(C)nn2CC)nc2cc(C(N)=O)cc(OCCCN(C)C(=O)[C@@H](N)CC(C)C)c21 [Compound 114]	
17.4	CC[C@H](C)[C@H](N)C(=O)N(C)CCCOc1cc(C(N)=O)cc2nc(NC(=O)c3cc(C)nn3CC)n(C/C=C/Cn3c(NC(=O)c4cc(C)nn4CC)nc4cc(C(N)=O)cc(OC)c43)c12 [Compound 115]	

The remaining lines, values behind:

Compound	EC50 [2] [nM]	other results
CCn1nc(C)cc1C(=O)Nc1nc2cc(C(=O)O)cc(OC)c2n1C/C=C/Cn1c(NC(=O)c2cc(C)nn2CC)nc2cc(C(=O)O)cc(OCCCN(C)C(=O)OCc3ccc(O[C@@H]4O[C@H](C(=O)O)[C@@H](O)[C@H](O)[C@H]4O)cc3NC(=O)CCNC(=O)CCN3C(=O)C=CC3=O)c21 [Compound 69]		EC50 (ng/mL) [1]: >10,000 ng/mL
CCn1nc(C)cc1C(=O)Nc1nc2cc(C(N)=O)cc(OC)c2n1C/C=C/Cn1c(NC(=O)c2cc(C)nn2CC)nc2cc(C(N)=O)cc(OCCCN(C)C(=O)[C@H](COC)NC(=O)CCN3C(=O)CC(SC[C@H](N)C(=O)O)C3=O)c21 (stereo partly shown) [Compound 76]	58.8	
CCn1nc(C)cc1C(=O)Nc1nc2cc(C(N)=O)cc(OC)c2n1C/C=C/Cn1c(NC(=O)c2ncccn2)nc2cc(C(N)=O)cc(OCCCNC)c21 [Compound 84]	> 10000	
CCn1cc(C(=O)Nc2nc3cc(C(N)=O)cc(OCCCNC)c3n2C/C=C/Cn2c(NC(=O)c3cc(C)nn3CC)nc3cc(C(N)=O)cc(OC)c32)c(C)n1 [Compound 85]	> 10000	
CCn1nc(C)cc1C(=O)Nc1nc2cc(C(N)=O)cc(OC)c2n1C/C=C/Cn1c(NC(=O)c2cccnn2)nc2cc(C(N)=O)cc(OCCCN(C)C(=O)CCN3C(=O)C=CC3=O)c21 [Compound 96]		EC50 (ng/mL) [1]: >10,000 ng/mL
CCn1nc(C)cc1C(=O)Nc1nc2cc(C(N)=O)cc(OC)c2n1C/C=C/Cn1c(NC(=O)c2ccnnc2)nc2cc(C(N)=O)cc(OCCCN(C)C(=O)CCN3C(=O)C=CC3=O)c21 [Compound 98]		EC50 (ng/mL) [1]: >10,000 ng/mL
CCn1nc(C)cc1C(=O)Nc1nc2cc(C(N)=O)cc(OC)c2n1C/C=C/Cn1c(NC(=O)c2ncccn2)nc2cc(C(N)=O)cc(OCCCN(C)C(=O)CCN3C(=O)C=CC3=O)c21 [Compound 101]		EC50 (ng/mL) [1]: >10,000 ng/mL
CCn1cc(C(=O)Nc2nc3cc(C(N)=O)cc(OCCCN(C)C(=O)CCN4C(=O)C=CC4=O)c3n2C/C=C/Cn2c(NC(=O)c3cc(C)nn3CC)nc3cc(C(N)=O)cc(OC)c32)c(C)n1 [Compound 102]		EC50 (ng/mL) [1]: >10,000 ng/mL
CCn1cc(C)nc1C(=O)Nc1nc2cc(C(N)=O)cc(OCCCN(C)C(=O)CCN3C(=O)C=CC3=O)c2n1C/C=C/Cn1c(NC(=O)c2cc(C)nn2CC)nc2cc(C(N)=O)cc(OC)c21 [Compound 103]		EC50 (ng/mL) [1]: >10,000 ng/mL
CCc1cc(C(=O)Nc2nc3cc(C(N)=O)cc(OCCCN(C)C(=O)CCN4C(=O)C=CC4=O)c3n2C/C=C/Cn2c(NC(=O)c3cc(C)nn3CC)nc3cc(C(N)=O)cc(OC)c32)n(C)n1 [Compound 104]		EC50 (ng/mL) [1]: >10,000 ng/mL
CCn1nc(C)cc1C(=O)Nc1nc2cc(C(N)=O)cc(OC)c2n1C/C=C/Cn1c(NC(=O)c2cc(C)nn2C)nc2cc(C(N)=O)cc(OCCCN(C)C(=O)CCN3C(=O)C=CC3=O)c21 [Compound 105]		EC50 [1]: 0.0525 µg/mL
CCc1oc(C)cc1C(=O)Nc1nc2cc(C(N)=O)cc(OCCCN(C)C(=O)CCN3C(=O)C=CC3=O)c2n1C/C=C/Cn1c(NC(=O)c2cc(C)nn2CC)nc2cc(C(N)=O)cc(OC)c21 [Compound 106]		EC50 (ng/mL) [1]: >10,000 ng/mL
CCn1nc(C)cc1C(=O)Nc1nc2cc(C(N)=O)cc(OC)c2n1C/C=C/Cn1c(NC(=O)c2cc(C)sn2)nc2cc(C(N)=O)cc(OCCCN(C)C(=O)CCN3C(=O)C=CC3=O)c21 [Compound 107]		EC50 (ng/mL) [1]: >10,000 ng/mL
CCn1nc(C)cc1C(=O)Nc1nc2cc(C(N)=O)cc(OC)c2n1C/C=C/Cn1c(NC(=O)c2ccnn2CC)nc2cc(C(N)=O)cc(OCCCN(C)C(=O)CCN3C(=O)C=CC3=O)c21 [Compound 108]		EC50 [1]: 0.0635 µg/mL
CCn1nc(C)cc1C(=O)Nc1nc2cc(C(N)=O)cc(OC)c2n1C/C=C/Cn1c(NC(=O)c2cc(C(F)(F)F)nn2CC)nc2cc(C(N)=O)cc(OCCCN(C)C(=O)CCN3C(=O)C=CC3=O)c21 [Compound 109]		EC50 (ng/mL) [1]: >10,000 ng/mL
CCn1nc(C)cc1C(=O)Nc1nc2cc(C(N)=O)cc(OC)c2n1C/C=C/Cn1c(NC(=O)c2c(C)cnn2C)nc2cc(C(N)=O)cc(OCCCN(C)C(=O)CCN3C(=O)C=CC3=O)c21 [Compound 110]		EC50 (ng/mL) [1]: >10,000 ng/mL
CCc1nc(C)sc1C(=O)Nc1nc2cc(C(N)=O)cc(OCCCN(C)C(=O)CCN3C(=O)C=CC3=O)c2n1C/C=C/Cn1c(NC(=O)c2cc(C)nn2CC)nc2cc(C(N)=O)cc(OC)c21 [Compound 111]		EC50 [1]: 0.0132 µg/mL
CCc1nc(C)oc1C(=O)Nc1nc2cc(C(N)=O)cc(OCCCN(C)C(=O)CCN3C(=O)C=CC3=O)c2n1C/C=C/Cn1c(NC(=O)c2cc(C)nn2CC)nc2cc(C(N)=O)cc(OC)c21 [Compound 112]		EC50 [1]: 0.002 µg/mL
